Measurements reported in patent publication US12338256B2, “Aza-tetracyclic oxazepine compounds and uses thereof” (Genentech, Inc., priority 2022, dated 2025).

How the values were obtained:
[1] = system: HPAC (homozygous mutant KRAS G12D human pancreatic cell line); experiment: KRAS 3D-Cell Proliferation Assay, HPAC (Example 503); assay type: cell-based; settings: Homo sapiens, HPAC, 168 h, HPAC 3D culture, 7 days, CellTiter-Glo 3D; read-out: Prolif HPAC 3D ATP IC50
In short: (§1)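 3D culture, ultra-low attachment wells; RPMI-1640/10% FBS/2 mM L-glutamine. Overnight settle, then compound series, 0.3% DMSO final, 7 d, 37° C, 5% CO2. Readout: CellTiter-Glo 3D luminescence. % inhibition vs DMSO (0%) and 1 μM staurosporine (100%); IC50 via 4-parameter Hill.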

[2] = system: H1975 (KRAS wild type human lung adenocarcinoma cell line); experiment: KRAS 3D-Cell Proliferation Assay, H1975 (Example 503); assay type: cell-based; settings: Homo sapiens, NCI-H1975, 168 h, H1975 3D culture, 7 days, CellTiter-Glo 3D; read-out: Prolif H1975 3D ATP IC50
In short: as §1

C[C@@H]1Oc2nc(-c3cc(N)cc4c3CC4)c(F)c3nc(OC[C@@]45CCCN4C[C@H](F)C5)nc(c23)N2C[C@H]3CC[C@H](N3)[C@@H]12 [Compound 201, 5-((5S,5aS,6S,9R)-1-Fluoro-12-(((2R,7aS)-2-fluorotetrahydro-1H-pyrrolizin-7a(5H)-yl)methoxy)-5-methyl-5a,6,7,8,9,10-hexahydro-5H-4-oxa-3,10a,11,13,14-pentaaza-6,9-methanonaphtho[1,8-ab]heptalen-2-yl)bicyclo[4.2.0]octa-1(6),2,4-trien-3-amine]
IC50 [1]: 407 nM
IC50 [2]: 10600 nM

Cc1c(F)c(N)cc(-c2nc3c4c(nc(OC[C@@H]5CCC6C=C(F)CCN65)nc4c2F)N2C[C@H]4CC[C@H](N4)[C@H]2[C@H](C)O3)c1C(F)(F)F (stereo partly drawn) [Compound 120, 2-fluoro-5-((5S,5aS,6S,9R)-1-fluoro-12-(((3S)-7-fluoro-1,2,3,5,6,8a-hexahydroindolizin-3-yl)methoxy)-5-methyl-5a,6,7,8,9,10-hexahydro-5H-4-oxa-3,10a,11,13,14-pentaaza-6,9-methanonaphtho[1,8-ab]heptalen-2-yl)-3-methyl-4-(trifluoromethyl)aniline]
IC50 [1]: 10.6 nM
IC50 [2]: 1530 nM

Cc1nc(N)cc(-c2nc3c4c(nc(OCC5(CN6CC(C)(F)C6)CC5)nc4c2F)N2C[C@H]4CC[C@H](N4)[C@H]2[C@H](C)O3)c1C(F)(F)F [Compound 289, 4-((5S,5aS,6S,9R)-1-fluoro-12-((1-((3-fluoro-3-methylazetidin-1-yl)methyl)cyclopropyl)methoxy)-5-methyl-5a,6,7,8,9,10-hexahydro-5H-4-oxa-3,10a,11,13,14-pentaaza-6,9-methanonaphtho[1,8-ab]heptalene-2-yl)-6-methyl-5-(trifluoromethyl)pyridin-2-amine]
IC50 [1]: 3.15 nM
IC50 [2]: 573 nM

Cc1c(F)c(N)cc(-c2nc3c4c(nc(OCC5CCC6CC(F)(F)CCN56)nc4c2F)N2CC4CCC(N4)C2C(C)O3)c1C(F)(F)F (single isomer, unassigned) [119 (isomer 1)]
IC50 [1]: 76.7 nM
IC50 [2]: 3150 nM

COC1(C(F)F)CN(CC2(COc3nc4c5c(nc(-c6cc(N)nc(C)c6C(F)(F)F)c(F)c5n3)O[C@@H](C)[C@@H]3[C@@H]5CC[C@H](CN43)N5)CC2)C1 [Compound 271, 4-((5S,5aS,6S,9R)-12-((1-((3-(difluoromethyl)-3-methoxyazetidin-1-yl)methyl)cyclopropyl)methoxy)-1-fluoro-5-methyl-5a,6,7,8,9,10-hexahydro-5H-4-oxa-3,10a,11,13,14-pentaaza-6,9-methanonaphtho[1,8-ab]heptalene-2-yl)-6-methyl-5-(trifluoromethyl)pyridin-2-amine]
IC50 [1]: 4.49 nM
IC50 [2]: 10900 nM

Cc1nc(N)cc(-c2nc3c4c(nc(OCC5(CN6CCC7(C6)CC7(F)F)CC5)nc4c2F)N2C[C@H]4CC[C@H](N4)[C@H]2[C@H](C)O3)c1C(F)(F)F (stereo partly drawn) [Compound 279, 4-((5S,5aS,6S,9R)-12-((1-((1,1-difluoro-5-azaspiro[2.4]heptan-5-yl)methyl)cyclopropyl)methoxy)-1-fluoro-5-methyl-5a,6,7,8,9,10-hexahydro-5H-4-oxa-3,10a,11,13,14-pentaaza[6,9]methanonaphtho[1,8-ab]heptalene-2-yl)-6-methyl-5-(trifluoromethyl)pyridin-2-amine]
IC50 [1]: 2.02 nM
IC50 [2]: 1270 nM

Cc1nc(N)cc(-c2nc3c4c(nc(OCC5(CN6C[C@H]7C[C@@H]6CO7)CC5)nc4c2F)N2C[C@H]4CC[C@H](N4)[C@H]2[C@H](C)O3)c1C(F)(F)F [Compound 209, 4-((5S,5aS,6S,9R)-12-((1-(((1R,4R)-2-Oxa-5-azabicyclo[2.2.1]heptan-5-yl)methyl)cyclopropyl)methoxy)-1-fluoro-5-methyl-5a,6,7,8,9,10-hexahydro-5H-4-oxa-3,10a,11,13,14-pentaaza-6,9-methanonaphtho[1,8-ab]heptalene-2-yl)-6-methyl-5-(trifluoromethyl)pyridin-2-amine]
IC50 [1]: 3.47 nM
IC50 [2]: 282 nM

Cc1nc(N)c(F)c(-c2nc3c4c(nc(OCC5(CN6C[C@@H]7C[C@H]6CO7)CC5)nc4c2F)N2C[C@H]4CC[C@H](N4)[C@H]2[C@H](C)O3)c1C(F)(F)F [Compound 222, 4-((5S,5aS,6S,9R)-12-((1-(((1S,4S)-2-Oxa-5-azabicyclo[2.2.1]heptan-5-yl)methyl)cyclopropyl)methoxy)-1-fluoro-5-methyl-5a,6,7,8,9,10-hexahydro-5H-4-oxa-3,10a,11,13,14-pentaaza-6,9-methanonaphtho[1,8-ab]heptalene-2-yl)-3-fluoro-6-methyl-5-(trifluoromethyl)pyridin-2-amine]
IC50 [1]: 5.76 nM
IC50 [2]: 1480 nM

CCc1cccc2nc(N)cc(-c3nc4c5c(nc(OC[C@@]67CCCN6C[C@H](F)C7)nc5c3F)N3C[C@H]5CC[C@H](N5)[C@H]3[C@H](C)O4)c12 [Compound 179, 5-Ethyl-4-((5S,5aS,6S,9R)-1-fluoro-12-(((2R,7aS)-2-fluorotetrahydro-1H-pyrrolizin-7a(5H)-yl)methoxy)-5-methyl-5a,6,7,8,9,10-hexahydro-5H-4-oxa-3,10a,11,13,14-pentaaza-6,9-methanonaphtho[1,8-ab]heptalene-2-yl)quinolin-2-amine]
IC50 [1]: 294 nM
IC50 [2]: 8410 nM

CO[C@@H]1CCN(CC2(COc3nc4c5c(nc(-c6cc(N)nc(C)c6C(F)(F)F)c(F)c5n3)O[C@@H](C)[C@@H]3[C@@H]5CC[C@H](CN43)N5)CC2)C[C@@H]1F [Compound 275, 4-((5S,5aS,6S,9R)-1-fluoro-12-((1-(((3S,4R)-3-fluoro-4-methoxypiperidin-1-yl)methyl)cyclopropyl)methoxy)-5-methyl-5a,6,7,8,9,10-hexahydro-5H-4-oxa-3,10a,11,13,14-pentaaza-6,9-methanonaphtho[1,8-ab]heptalene-2-yl)-6-methyl-5-(trifluoromethyl)pyridin-2-amine]
IC50 [1]: 3.29 nM
IC50 [2]: 5180 nM

C[C@@H]1Oc2nc(-c3cc(N)nc(C(F)F)c3C(F)(F)F)c(F)c3nc(OC[C@@]45CCCN4C[C@H](F)C5)nc(c23)N2C[C@H]3CC[C@H](N3)[C@@H]12 [Compound 260, 6-(Difluoromethyl)-4-((5S,5aS,6S,9R)-1-fluoro-12-(((2R,7aS)-2-fluorotetrahydro-1H-pyrrolizin-7a(5H)-yl)methoxy)-5-methyl-5a,6,7,8,9,10-hexahydro-5H-4-oxa-3,10a,11,13,14-pentaaza-6,9-methanonaphtho[1,8-ab]heptalen-2-yl)-5-(trifluoromethyl)pyridin-2-amine]
IC50 [1]: 41.5 nM
IC50 [2]: 3250 nM

Cc1c(F)c(N)c(F)c(-c2nc3c4c(nc(OC[C@@]56CCCN5C[C@H](F)C6)nc4c2F)N2C[C@H]4CC[C@H](N4)[C@H]2[C@H](C)O3)c1I [Compound 204, 2,6-Difluoro-3-((5S,5aS,6S,9R)-1-fluoro-12-(((2R,7aS)-2-fluorotetrahydro-1H-pyrrolizin-7a(5H)-yl)methoxy)-5-methyl-5a,6,7,8,9,10-hexahydro-5H-4-oxa-3,10a,11,13,14-pentaaza-6,9-methanonaphtho[1,8-ab]heptalen-2-yl)-4-iodo-5-methylaniline]
IC50 [1]: 18.9 nM
IC50 [2]: 1420 nM

Cc1nc(N)cc(-c2nc3c4c(nc(OCC56CCCN5CC(F)C6)nc4c2F)N2CC4CCC(N4)[C@H]2[C@@H](C(F)(F)F)O3)c1C(F)(F)F (stereo in doubt) [Compound 243, 4-((6R,9S)-1-fluoro-12-(((2S,7aR)-2-fluorotetrahydro-1H-pyrrolizin-7a(5H)-yl)methoxy)-5-(trifluoromethyl)-5a,6,7,8,9,10-hexahydro-5H-4-oxa-3,10a,11,13,14-pentaaza-6,9-methanonaphtho[1,8-ab]heptalene-2-yl)-6-methyl-5-(trifluoromethyl)pyridin-2-amine]
IC50 [1]: 2000 nM
IC50 [2]: 20000 nM

Cc1c(F)c(N)cc(-c2nc3c4c(nc(OC[C@@]56CCCN5C[C@H](F)C6)nc4c2F)N2C[C@H]4CC[C@H](N4)[C@H]2[C@H](C)O3)c1C=O [Compound 59, 4-Amino-3-fluoro-6-((5S,5aS,6S,9R)-1-fluoro-12-(((2R,7aS)-2-fluorotetrahydro-1H-pyrrolizin-7a(5H)-yl)methoxy)-5-methyl-5a,6,7,8,9,10-hexahydro-5H-4-oxa-3,10a,11,13,14-pentaaza-6,9-methanonaphtho[1,8-ab]heptalen-2-yl)-2-methylbenzaldehyde]
IC50 [1]: 117 nM
IC50 [2]: 10500 nM

Cc1c(F)c(N)cc(-c2nc3c4c(nc(OCCCN5C[C@H]6C[C@@H]5CO6)nc4c2F)N2C[C@H]4CC[C@H](N4)[C@H]2[C@H](C)O3)c1C(F)(F)F [Compound 163, 5-((5S,5aS,6S,9R)-12-(3-((1R,4R)-2-Oxa-5-azabicyclo[2.2.1]heptan-5-yl)propoxy)-1-fluoro-5-methyl-5a,6,7,8,9,10-hexahydro-5H-4-oxa-3,10a,11,13,14-pentaaza-6,9-methanonaphtho[1,8-ab]heptalen-2-yl)-2-fluoro-3-methyl-4-(trifluoromethyl)aniline]
IC50 [1]: 10.2 nM
IC50 [2]: 1140 nM

Cc1c(F)c(N)cc(-c2nc3c4c(nc(OC[C@@]56CCCN5C[C@H](F)C6)nc4c2F)N2C[C@H]4CC[C@H](N4)[C@H]2C(CF)O3)c1C(F)(F)F (stereo partly drawn) [Compound 239, 2-Fluoro-5-((5aS,6S,9R)-1-fluoro-5-(fluoromethyl)-12-(((2R,7aS)-2-fluorotetrahydro-1H-pyrrolizin-7a(5H)-yl)methoxy)-5a,6,7,8,9,10-hexahydro-5H-4-oxa-3,10a,11,13,14-pentaaza-6,9-methanonaphtho[1,8-ab]heptalen-2-yl)-3-methyl-4-(trifluoromethyl)aniline]
IC50 [1]: 33.4 nM
IC50 [2]: 569 nM
